# Results as given in patent US12653187B2, “Sulfur based pesticides” (AGRONATURALIS LTD, priority 2019, dated 2026).
# Assay: Surface tension and equilibrium contact angle by drop shape analyser (Example 7)
# Assay type: physicochemical
# Experimental: The wetting properties of the individual surfactants and in combination were evaluated by dissolving the surfactants at various concentrations in deionised water. Surface tension and equilibrium contact angle were measured in triplicate using a drop shape analyser with results given in Table 9 below.
SMILES,contact angle (°) (0.005 % w/w in deionised water),surface tension (mN/m) (0.005 % w/w in deionised water),contact angle (°) (0.010 % w/w in deionised water),surface tension (mN/m) (0.010 % w/w in deionised water),contact angle (°) (0.025 % w/w in deionised water),surface tension (mN/m) (0.025 % w/w in deionised water),contact angle (°) (0.050 % w/w in deionised water),surface tension (mN/m) (0.050 % w/w in deionised water),contact angle (°) (0.100 % w/w in deionised water),surface tension (mN/m) (0.100 % w/w in deionised water),contact angle (°) (0.200 % w/w in deionised water),surface tension (mN/m) (0.200 % w/w in deionised water),contact angle (°) (0.250 % w/w in deionised water),surface tension (mN/m) (0.250 % w/w in deionised water),contact angle (°) (0.500 % w/w in deionised water),surface tension (mN/m) (0.500 % w/w in deionised water)
CCCCC(CC)COC(=O)CC(C(=O)OCC(CC)CCCC)S(=O)(=O)[O-].[Na+] (stereo not shown) [sodium dioctylsulfosuccinate],54.1,44.3,38.2,43.6,35.4,34.7,31.5,32.2,28.7,28.3,24.4,26.8,22.8,26.1,21.4,25.3
CCCCCCCCCCCCOS(=O)(=O)[O-].[Na+] [sodium lauryl sulfate],107.1,70.6,–,–,72.8,56.8,63.9,46.1,55.3,37.2,51.5,34.2,50.6,33.4,–,–
